Measured values from patent publication US20110262895A1, “METHODS FOR THE DIAGNOSIS OF VARICELLA ZOSTER VIRUS INFECTION” (priority 2008, published 2011).

How the values were obtained:
[1] = tested on: varicella-zoster virus (VZV) DNA in saliva; test: Salivary VZV DNA by real-time PCR in herpes zoster patients treated with valacyclovir; assay type: in vivo, human; settings: oral valacyclovir 1 g 3 times daily for 7 days, 50 patients with follow-up
Protocol: Methods. All human-study protocols were approved by the Committee for the Protection of Human Subjects of the Lyndon B. Johnson Space Center (control subjects) and by the Institutional Review Board of the University of Texas Health Sciences Center (patients with herpes zoster). Informed consent was obtained from all subjects. The 54 patients with herpes zoster consisted of 29 women (21-82 years old) and 25 men (35-79 years old) (Table 2). All patients with herpes zoster were treated with oral valacyclovir (1 g 3 times daily) for 7 consecutive days. Pain was described by all patients on a scale of 0 (no pain) to 10 (worst pain) (Jacox et al., 1994). […]
Saliva samples from all subjects were obtained by having subjects suck on a cotton plug for 1-2 min, after which the saturated cotton was placed in a salivette tube (Sarstedt). […] Quantitative real-time polymerase chain reaction (PCR) was performed in a TaqMan 7700 sequence detector (Applied Biosystems) using fluorescence-based simultaneous amplification and product detection.
Primers and probes specific for VZV, herpes simplex virus (HSV)-1 and GAPDH DNA sequences have been described elsewhere (Mehta et al., 2004; Cohrs et al., 2000). […] At the height of CPE, cells were analyzed by PCR with HSV-1-specific and VZV-specific primers (Mehta et al., 2004; Cohrs et al., 2000) and by immunohistochemistry for viral antigens.

[2] = Pain score (0-10) in herpes zoster patients treated with valacyclovir; assay type: in vivo, human; settings: oral valacyclovir 1 g 3 times daily for 7 days, 50 patients with follow-up
Protocol: Methods. All human-study protocols were approved by the Committee for the Protection of Human Subjects of the Lyndon B. Johnson Space Center (control subjects) and by the Institutional Review Board of the University of Texas Health Sciences Center (patients with herpes zoster). Informed consent was obtained from all subjects. The 54 patients with herpes zoster consisted of 29 women (21-82 years old) and 25 men (35-79 years old) (Table 2). All patients with herpes zoster were treated with oral valacyclovir (1 g 3 times daily) for 7 consecutive days. Pain was described by all patients on a scale of 0 (no pain) to 10 (worst pain) (Jacox et al., 1994). Six control subjects consisted of 5 women (24-64 years old) and 1 person with chronic pain due to malignancy or non-VZV inflammatory disease. Fourteen additional healthy control subjects consisted of 9 men and 5 women (34-70 years old). Three saliva samples were collected at weekly intervals from all 6 control subjects with chronic pain and from the 14 healthy control subjects.

VZV = settings: requires VZV thymidine kinase for phosphorylation; cited from earlier work
HSV = settings: cited from earlier work
CMV = settings: cited from earlier work

Row | SMILES | patients in whom VZV DNA disappeared from saliva ([1]; 2-week study period) | patients in whom virus DNA copy numbers decreased in saliva ([1]; 14-day study period) | patients in whom pain decreased ([2]; 14-day study period) | patients in whom pain disappeared ([2]; end of 2-week study period) | activity against VZV (VZV) | activity against HSV (HSV) | activity against CMV (CMV)
1 | CC(C)[C@H](N)C(=O)OCCOCn1cnc2c(=O)[nH]c(N)nc21 [valacyclovir] | 82% | 94% | 86% | 74% | – | – | –
2 | CC#Cc1cn([C@@H]2O[C@H](CO)[C@@H](O)[C@@H]2O)c(=O)[nH]c1=O [882C] | – | – | – | – | specific activity against VZV | without any significant activity | without any significant activity
